Columns and labels:
[1] = test system: barnyardgrass; assay: Test C preemergence; format: in vivo, Echinochloa crusgalli
Method in brief: (§1)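 Soil-applied (pre) and foliar (post, 1–2 leaf, 2–10 cm) sprays; surfactant-containing non-phytotoxic solvent vehicle; loam/sand substrate. Readout: visual % control at 10 d, greenhouse, versus untreated.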

[2] = test system: blackgrass; assay: Test C preemergence; format: in vivo, Alopecurus myosuroides
Method in brief: as §1

[3] = test system: corn; assay: Test C preemergence; format: in vivo, Zea mays
Method in brief: as §1

[4] = test system: green foxtail; assay: Test C preemergence; format: in vivo, Setaria viridis
Method in brief: as §1

[5] = test system: kochia; assay: Test C preemergence; format: in vivo, Bassia scoparia
Method in brief: as §1

[6] = test system: oat, wild; assay: Test C preemergence; format: in vivo, Avena fatua
Method in brief: as §1

[7] = test system: pigweed, palmer; assay: Test C preemergence; format: in vivo, Amaranthus palmeri
Method in brief: as §1

[8] = test system: ragweed; assay: Test C preemergence; format: in vivo, Ambrosia artemisiifolia
Method in brief: as §1

[9] = test system: ryegrass, Italian; assay: Test C preemergence; format: in vivo, Lolium multiflorum
Method in brief: as §1

[10] = test system: soybean; assay: Test C preemergence; format: in vivo, Glycine max
Method in brief: as §1

[11] = test system: wheat; assay: Test C preemergence; format: in vivo, Triticum aestivum
Method in brief: as §1

[12] = test system: barnyardgrass; assay: Test C postemergence; format: in vivo, Echinochloa crusgalli; conditions: 10 days, 0 to 100 scale (0 no effect, 100 complete control)
Method in brief: as §1

[13] = test system: blackgrass; assay: Test C postemergence; format: in vivo, Alopecurus myosuroides; conditions: 10 days, 0 to 100 scale (0 no effect, 100 complete control)
Method in brief: as §1

[14] = test system: corn; assay: Test C postemergence; format: in vivo, Zea mays; conditions: 10 days, 0 to 100 scale (0 no effect, 100 complete control)
Method in brief: as §1

[15] = test system: green foxtail; assay: Test C postemergence; format: in vivo, Setaria viridis; conditions: 10 days, 0 to 100 scale (0 no effect, 100 complete control)
Method in brief: as §1

[16] = test system: kochia; assay: Test C postemergence; format: in vivo, Bassia scoparia; conditions: 10 days, 0 to 100 scale (0 no effect, 100 complete control)
Method in brief: as §1

[17] = test system: oat, wild; assay: Test C postemergence; format: in vivo, Avena fatua; conditions: 10 days, 0 to 100 scale (0 no effect, 100 complete control)
Method in brief: as §1

[18] = test system: pigweed, palmer; assay: Test C postemergence; format: in vivo, Amaranthus palmeri; conditions: 10 days, 0 to 100 scale (0 no effect, 100 complete control)
Method in brief: as §1

[19] = test system: ragweed; assay: Test C postemergence; format: in vivo, Ambrosia artemisiifolia; conditions: 10 days, 0 to 100 scale (0 no effect, 100 complete control)
Method in brief: as §1

[20] = test system: ryegrass, Italian; assay: Test C postemergence; format: in vivo, Lolium multiflorum; conditions: 10 days, 0 to 100 scale (0 no effect, 100 complete control)
Method in brief: as §1

[21] = test system: soybean; assay: Test C postemergence; format: in vivo, Glycine max; conditions: 10 days, 0 to 100 scale (0 no effect, 100 complete control)
Method in brief: as §1

[22] = test system: wheat; assay: Test C postemergence; format: in vivo, Triticum aestivum; conditions: 10 days, 0 to 100 scale (0 no effect, 100 complete control)
Method in brief: as §1

[23] = test system: galium; assay: Test C postemergence; format: in vivo, Galium aparine; conditions: 10 days, 0 to 100 scale (0 no effect, 100 complete control)
Method in brief: as §1

[24] = test system: horseweed; assay: Test C postemergence; format: in vivo, Erigeron canadensis; conditions: 10 days, 0 to 100 scale (0 no effect, 100 complete control)
Method in brief: as §1

[25] = test system: barnyardgrass; assay: Test D flooded paddy test; format: in vivo, Echinochloa crus-galli; conditions: 250 g ai/ha, applied to paddy water, visual rating after 13 to 14 days, scale 0 to 100 (0 no effect, 100 complete control)
Method in brief: (§2)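 At the 2-leaf stage, floodwater 3 cm deep received the test compound; that depth persisted throughout. Plants scored visually 13 to 14 days on, 0 (no effect) to 100 (complete control), dash indicating no result.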

[26] = test system: ducksalad; assay: Test D flooded paddy test; format: in vivo, Heteranthera limosa; conditions: 250 g ai/ha, applied to paddy water, visual rating after 13 to 14 days, scale 0 to 100 (0 no effect, 100 complete control)
Method in brief: as §2

[27] = test system: rice; assay: Test D flooded paddy test; format: in vivo, Oryza sativa; conditions: 250 g ai/ha, applied to paddy water, visual rating after 13 to 14 days, scale 0 to 100 (0 no effect, 100 complete control)
Method in brief: as §2

[28] = test system: sedge, umbrella; assay: Test D flooded paddy test; format: in vivo, Cyperus difformis; conditions: 250 g ai/ha, applied to paddy water, visual rating after 13 to 14 days, scale 0 to 100 (0 no effect, 100 complete control)
Method in brief: as §2

[29] = 500 g ai/ha, preemergence, 0 to 100 scale (0 no effect, 100 complete control)
[30] = Preemergence, 125 g ai/ha, 0 to 100 scale, 0 no effect, 100 complete control

C[C@H]1CN(C(=O)c2cccc(-n3cnc(C4CC4)n3)c2)c2cccc(Cl)c2O1 [Compound 325]
50: Plant response rating, Corn ([14]; 500 g ai/ha, postemergence) | Plant response rating, Ragweed ([19]; Postemergence, 125 g ai/ha)
60: Plant response rating, Blackgrass [2, 30] | Plant response rating, Oat, Wild [6, 30] | Plant response rating, Ryegrass, Italian [9, 30] | Plant response rating, Foxtail, Green ([15]; Postemergence, 125 g ai/ha) | Plant response rating, Wheat ([22]; 500 g ai/ha, postemergence) | Plant response rating, Horseweed ([24]; 500 g ai/ha, postemergence)
80: Blackgrass plant response rating [2, 29] | Plant response rating, Barnyardgrass ([12]; 500 g ai/ha, postemergence) | Plant response rating, Ryegrass, Italian ([20]; 500 g ai/ha, postemergence)
30: Wheat plant response rating [11, 29] | Plant response rating, Corn ([14]; Postemergence, 125 g ai/ha) | Plant response rating, Ryegrass, Italian ([20]; Postemergence, 125 g ai/ha)
70: Ragweed plant response rating [8, 29] | Plant response rating, Blackgrass ([13]; 500 g ai/ha, postemergence) | Plant response rating, Oat, Wild ([17]; 500 g ai/ha, postemergence) | Plant response rating, Ragweed ([19]; 500 g ai/ha, postemergence)
10: Corn plant response rating [3, 29] | Plant response rating, Corn [3, 30] | Plant response rating, Wheat [11, 30] | Plant response rating, Blackgrass ([13]; Postemergence, 125 g ai/ha) | Plant response rating, Oat, Wild ([17]; Postemergence, 125 g ai/ha)
20: Plant response rating, Ragweed [8, 30] | Plant response rating, Wheat ([22]; Postemergence, 125 g ai/ha)
40: Plant response rating, Barnyardgrass [1, 30] | Plant response rating, Kochia [5, 30] | Soybean plant response rating [10, 29] | Plant response rating, Soybean [10, 30] | Plant response rating, Barnyardgrass ([12]; Postemergence, 125 g ai/ha)
75: Plant response rating, Sedge, Umbrella (Flood) [28]
90: Kochia plant response rating [5, 29] | Oat, Wild plant response rating [6, 29] | Ryegrass, Italian plant response rating [9, 29] | Plant response rating, Foxtail, Green ([15]; 500 g ai/ha, postemergence) | Plant response rating, Kochia ([16]; 500 g ai/ha, postemergence) | Plant response rating, Kochia ([16]; Postemergence, 125 g ai/ha) | Plant response rating, Pigweed, Palmer ([18]; Postemergence, 125 g ai/ha)
0: Plant response rating, Horseweed ([24]; Postemergence, 125 g ai/ha) | Plant response rating, Barnyardgrass (Flood) [25] | Plant response rating, Rice (Flood) [27]
100: Barnyardgrass plant response rating [1, 29] | Foxtail, Green plant response rating [4, 29] | Plant response rating, Foxtail, Green [4, 30] | Pigweed, Palmer plant response rating [7, 29] | Plant response rating, Pigweed, Palmer [7, 30] | Plant response rating, Pigweed, Palmer ([18]; 500 g ai/ha, postemergence) | Plant response rating, Soybean ([21]; 500 g ai/ha, postemergence) | Plant response rating, Soybean ([21]; Postemergence, 125 g ai/ha) | Plant response rating, Galium ([23]; 500 g ai/ha, postemergence) | Plant response rating, Galium ([23]; Postemergence, 125 g ai/ha)
35: Plant response rating, Ducksalad (Flood) [26]
